Data from patent publication US20090196869A1, “ANTITUMOR COMBINATIONS CONTAINING TAXANE DERIVATIVES” (SANOFI-AVENTIS, priority 2006, published 2009).

Key:
[1] = test system: Human breast carcinoma UISO-BCA-1; test: Antitumor activity in Human Mammary UISO-BCA-1 xenografted in nude mice (3-arm dose-response); assay type: in vivo; details: for sensitivity of the UISO-BCA-1 xenograft to the agent: characterisation of the tumor model, monotherapy; for (T-C) days / CR / TFS d121 / log cell kill: acetocyclopropyl taxotere alone, day 17, 21, 25
Protocol: This efficacy may be quantified, for example, by the log10 cells killed, which is determined according to the following formula: […]
A product is considered to be active if log10 cells killed is greater than or equal to 0.7. A product is considered to be very active if log10 cells killed is greater than 2.8.
The combination, used at its own maximum tolerated dose, in which each of the constituents will be present at a dose generally not exceeding its maximum tolerated dose, will manifest therapeutic synergy when the log10 cells killed is greater than the value of the log10 cells killed of the best constituent when it is administered alone.
(§1) The animals subjected to the experiment, generally mice, are subcutaneously grafted bilaterally with 30 to 60 mg of a tumor fragment on day 0. The animals bearing tumors are mixed before being subjected to the various treatments and controls. In the case of treatment of advanced tumors, tumors are allowed to develop to the desired size, animals having insufficiently developed tumors being eliminated. The selected animals are distributed at random to undergo the treatments and controls. […] The different animal groups are weighed 3 or 4 times a week until the maximum weight loss is reached, and the groups are then weighed at least once a week until the end of the trial.
The tumors are measured 2 or 3 times a week until the tumor reaches approximately 2 g, or until the animal dies if this occurs before the tumor reaches 2 g. The animals are autopsied when sacrificed.
The tumor model used to evaluate each drug combination was selected, in general, on the basis of its responsiveness to each of the agents when used as monotherapy. Using i.v. intermittent schedules, full dose response trials were conducted for each single agent and each combination. In the present case, the selected tumor was a Human breast carcinoma UISO-BCA-1 derived from a malignant pleural effusion. The primary tumor was well-differentiated infiltrating ductal carcinoma of the breast. Radiotherapy post mastectomy was practiced. Three years after, chemotherapy to treat a left supraclavicular mass was done (10 courses with cytoxan, methotrexate, 5-Fu and Tamoxifen). […] This tumor model was established in nude mice from a 2.10^7 cell implant, and maintained by serial sc passage as tumor fragment.

[2] = Toxicity (drug deaths, body weight loss, highest non-toxic dose) in tumor-bearing nude mice; assay type: in vivo; details: for % bwl at nadir / Drug deaths: acetocyclopropyl taxotere alone, day 17, 21, 25
Protocol: as §1

[3] = iv 12.4 mg/kg/day (total 37.2 mg/kg)
[4] = iv 20.0 mg/kg/day (total 60.0 mg/kg)
[5] = iv 32.3 mg/kg/day (total 96.9 mg/kg)
[6] = iv 52.1 mg/kg/day (total 156.3 mg/kg)
[7] = single agent, iv day 17, 21, 25

SMILES: O=c1[nH]cc(F)c(=O)[nH]1 [5-Fluorouracil, reference compound]
- sensitivity of the UISO-BCA-1 xenograft to the agent [1]: sensitive

SMILES: CC(=O)O[C@H]1C(=O)[C@]23C[C@H]2C[C@H]2OC[C@@]2(OC(C)=O)[C@H]3[C@H](OC(=O)c2ccccc2)[C@]2(O)CC(OC(=O)[C@H](O)C(NC(=O)OC(C)(C)C)c3ccccc3)C(C)=C1C2(C)C (some centres unmarked) [acetocyclopropyl taxotere]
- % bwl at nadir [2, 3]: 0.5%
- Drug deaths [2, 3]: 0/8
- % bwl at nadir [2, 4]: 0.5%
- Drug deaths [2, 4]: 0/8
- % bwl at nadir [2, 5]: 5.2%
- Drug deaths [2, 5]: 0/8
- % bwl at nadir [2, 6]: 7.2%
- Drug deaths [2, 6]: 2/8
- highest non-toxic dose [2, 7]: 32.3 mg/kg per injection
- highest non-toxic dose, total dose [2, 7]: 96.9 mg/kg
- (T-C) days [1, 3]: 1.8 days
- CR [1, 3]: 0/8
- TFS d121 [1, 3]: 0/8
- log cell kill [1, 3]: 0.1
- (T-C) days [1, 4]: 6.0 days
- CR [1, 4]: 0/8
- TFS d121 [1, 4]: 0/8
- log cell kill [1, 4]: 0.4
- (T-C) days [1, 5]: 20.8 days
- CR [1, 5]: 0/8
- TFS d121 [1, 5]: 0/8
- log cell kill [1, 5]: 1.3
- CR ([1]; iv 32.3 mg/kg/day (total 96.9 mg/kg), listed as acetyl cyclopropyl docetaxel): no regression
- sensitivity of the UISO-BCA-1 xenograft to the agent [1]: sensitive

SMILES: O=P1(N(CCCl)CCCl)NCCCO1 (centres unmarked) [cyclophosphamide, reference compound]
- sensitivity of the UISO-BCA-1 xenograft to the agent [1]: poorly sensitive

SMILES: CC(=O)O[C@@]12CO[C@@H]1C[C@H](O)[C@@]1(C)C(=O)[C@H](O)C3=C(C)[C@@H](OC(=O)[C@H](O)[C@@H](NC(=O)OC(C)(C)C)c4ccccc4)C[C@@](O)([C@@H](OC(=O)c4ccccc4)[C@H]21)C3(C)C [docetaxel, reference compound]
- sensitivity of the UISO-BCA-1 xenograft to the agent [1]: resistant

SMILES: COc1cccc2c1C(=O)c1c(O)c3c(c(O)c1C2=O)C[C@@](O)(C(=O)CO)C[C@@H]3O[C@H]1C[C@H](N)[C@H](O)[C@H](C)O1 [doxorubicin, reference compound]
- sensitivity of the UISO-BCA-1 xenograft to the agent [1]: poorly sensitive

SMILES: CC[C@]1(O)C[C@H]2CN(CCc3c([nH]c4ccccc34)[C@@](C(=O)OC)(c3cc4c(cc3OC)N(C=O)[C@H]3[C@@](O)(C(=O)OC)[C@H](OC(C)=O)[C@]5(CC)C=CCN6CC[C@]43[C@@H]65)C2)C1 [vincristine, reference compound]
- sensitivity of the UISO-BCA-1 xenograft to the agent [1]: poorly sensitive
